Assay results taken from patent US10202360B2 (CELGENE QUANTICEL RESEARCH, INC., priority 2016, dated 2019).

Target: CREBBP (Homo sapiens (Human), UniProt Q92793)
Assay: In vitro enzyme inhibition assay - CREBBP inhibition (AlphaScreen, biotinylated H4-tetraacetyl peptide)
Format: binding
Details: Table 28; AlphaScreen, H4-tetraacetyl peptide
Procedure, shortened: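 Displacement of 20 nM biotinylated tetraacetyl-H4 peptide from 50 nM E. coli-expressed His-CREBBP, measured by AlphaScreen after bead equilibration for 2 h.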

Chain of CREBBP (Q92793 1081-1197): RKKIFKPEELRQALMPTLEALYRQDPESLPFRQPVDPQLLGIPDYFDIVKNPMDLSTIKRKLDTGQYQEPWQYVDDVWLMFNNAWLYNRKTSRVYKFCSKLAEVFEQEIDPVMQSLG

Row | SMILES | IC50 [nM]
1 | Cc1cccc(C)c1Oc1nc(NS(=O)(=O)CC(C)C)cc(-c2cc(C)c(=O)n(C)c2)n1 [Example 83, N-(6-(1,5-dimethyl-6-oxo-1,6-dihydropyridin-3-yl)-2-(2,6-dimethylphenoxy)pyrimidin-4-yl)-2-methylpropane-1-sulfonamide] | < 500
2 | CCCCS(=O)(=O)Nc1cc(-c2ccc(=O)n(C)c2)nc(Oc2c(C)cc(Cl)cc2Cl)n1 [Example 32, Butane-1-sulfonic acid [2-(2,4-dichloro-6-methyl-phenoxy)-6-(1-methyl-6-oxo-1,6-dihydro-pyridin-3-yl)-pyrimidin-4-yl]-amide] | < 500
3 | CCC(C)S(=O)(=O)Nc1cc(-c2ccc(=O)n(C)c2)nc(Oc2c(C)cccc2F)n1 (stereo not shown) [Example 137, Butane-2-sulfonic acid [2-(2-fluoro-6-methyl-phenoxy)-6-(1-methyl-6-oxo-1,6-dihydro-pyridin-3-yl)-pyrimidin-4-yl]-amide] | < 500
4 | Cc1cccc(F)c1Oc1nc(NC(C)c2ccccc2)cc(-c2ccc(=O)n(C)c2)n1 (stereo not shown) [Example 298, 5-[2-(2-Fluoro-6-methyl-phenoxy)-6-(1-phenyl-ethylamino)-pyrimidin-4-yl]-1-methyl-1H-pyridin-2-one] | < 500
5 | CCS(=O)(=O)Nc1cc(-c2ccc(=O)n(C)c2)nc(OC(C)C)n1 [Example 236, Ethanesulfonic acid [2-isopropoxy-6-(1-methyl-6-oxo-1,6-dihydro-pyridin-3-yl)-pyrimidin-4-yl]-amide] | < 500
6 | Cc1cccc(F)c1Oc1nc(N[C@@H](C)c2ccccc2)cc(-c2ccc(=O)n(C)c2)n1 [Example 310, (S)-5-[2-(2-Fluoro-6-methyl-phenoxy)-6-(1-phenyl-ethylamino)-pyrimidin-4-yl]-1-methyl-1H-pyridin-2-one] | < 500
7 | Cc1cc(-c2cc(CS(=O)(=O)C(C)C)nc(Oc3ccc(F)cc3F)n2)cn(C)c1=O [Example 95, 5-[2-(2,4-Difluoro-phenoxy)-6-(propane-2-sulfonylmethyl)-pyrimidin-4-yl]-1,3-dimethyl-1H-pyridin-2-one] | < 500
8 | CC(=O)OCCn1cc(-c2cc(NS(=O)(=O)C(C)C)nc(Oc3ccc(F)cc3F)n2)cc(C)c1=O [Example 51, Acetic acid 2-{5-[2-(2,4-difluoro-phenoxy)-6-(propane-2-sulfonylamino)-pyrimidin-4-yl]-3-methyl-2-oxo-2H-pyridin-1-yl}-ethyl ester] | 500 to 5000
9 | Cc1cccc(F)c1Oc1nc(NS(=O)(=O)C(C)C)nc(-c2ccc(=O)n(C)c2)n1 [Example 176, Propane-2-sulfonic acid [4-(2-fluoro-6-methyl-phenoxy)-6-(1-methyl-6-oxo-1,6-dihydro-pyridin-3-yl)-[1,3,5]triazin-2-yl]-amide] | < 500
10 | CCCCC(=O)Nc1cc(-c2cc(C)c(=O)n(C)c2)nc(Oc2ccc(F)cc2F)n1 [Example 79, N-(2-(2,4-difluorophenoxy)-6-(1,5-dimethyl-6-oxo-1,6-dihydropyridin-3-yl)pyrimidin-4-yl)pentanamide] | < 500
11 | CCC[C@H](C)S(=O)(=O)Nc1cc(-c2cc(C)c(=O)n(C)c2)nc(Oc2c(C)cccc2Cl)n1 [Example 223, (S)-N-(2-(2-chloro-6-methylphenoxy)-6-(1,5-dimethyl-6-oxo-1,6-dihydropyridin-3-yl)pyrimidin-4-yl)pentane-2-sulfonamide] | < 500
12 | Cc1cccc(Cl)c1Oc1nc(N)cc(-c2cc(C)c(=O)n(C)c2)n1 [Example 334, 5-[6-Amino-2-(2-chloro-6-methyl-phenoxy)-pyrimidin-4-yl]-1,3-dimethyl-1H-pyridin-2-one] | < 500
13 | CCCCS(=O)(=O)Nc1cc(-c2cc(C)c(=O)n(C)c2)nc(Oc2c(F)cccc2Cl)n1 [Example 138, Butane-1-sulfonic acid [2-(2-chloro-6-fluoro-phenoxy)-6-(1,5-dimethyl-6-oxo-1,6-dihydro-pyridin-3-yl)-pyrimidin-4-yl]-amide] | < 500
